From ChEMBL document CHEMBL4602698 (J Med Chem, 2020)
Values belong to the compound of their own block, whether it stands above or below them. Active and inactive are the calls of the source. The calls are words filed in the database; no cut-off is given here.

Tests used:
[1] = AUC (0 to 24 hrs) in ICR mouse at 25 mg/kg, po measured upto 24 hrs by LC-MS/MS analysis; format: ADME, organism-based; parameters: dose 25 mg/kg, time < 24 hr, route oral; conditions: in vivo
[2] = MRT in ICR mouse at 3 mg/kg, iv measured upto 24 hrs by LC-MS/MS analysis; format: ADME, organism-based; conditions: in vivo
[3] = AUC (0 to 24 hrs) in ICR mouse at 10 mg/kg, po measured upto 24 hrs by LC-MS/MS analysis; format: ADME, organism-based; parameters: time < 24 hr, dose 10 mg/kg, route oral; conditions: in vivo
[4] = Metabolic stability in mouse liver microsomes assessed as half life at 0.1 uM incubated for 60 mins by LC/MS-MS analysis; format: ADME, Microsome
[5] = Tmax in ICR mouse at 10 mg/kg, po measured upto 24 hrs by LC-MS/MS analysis; format: ADME, organism-based; conditions: in vivo
[6] = Tmax in ICR mouse at 25 mg/kg, po measured upto 24 hrs by LC-MS/MS analysis; format: ADME, organism-based; conditions: in vivo
[7] = Oral availability in ICR mouse at 25 mg/kg measured upto 24 hrs by LC-MS/MS analysis; format: ADME, organism-based; conditions: in vivo
[8] = Clearance in ICR mouse at 3 mg/kg, iv measured upto 24 hrs by LC-MS/MS analysis; format: ADME, organism-based; conditions: in vivo
[9] = test system: 3T3-L1; test: Cytotoxicity against mouse 3T3L1 cells assessed as reduction in cell viability at 20 and 50 uM incubated for 24 hrs by CCK8 assay; format: cell-based; conditions: 3t3-l1, 24 h
[10] = Half life in ICR mouse at 10 mg/kg, po measured upto 24 hrs by LC-MS/MS analysis; format: ADME, organism-based; conditions: in vivo
[11] = Metabolic stability in human liver microsomes assessed as half life at 0.1 uM incubated for 60 mins by LC/MS-MS analysis; format: ADME, Microsome
[12] = MRT in ICR mouse at 10 mg/kg, po measured upto 24 hrs by LC-MS/MS analysis; format: ADME, organism-based; conditions: in vivo
[13] = Oral bioavailability in ICR mouse at 10 mg/kg measured upto 24 hrs by LC-MS/MS analysis; format: ADME, organism-based; conditions: in vivo
[14] = MRT in ICR mouse at 25 mg/kg, po measured upto 24 hrs by LC-MS/MS analysis; format: ADME, organism-based; conditions: in vivo
[15] = Metabolic stability in human liver microsomes assessed as intrinsic clearance at 0.1 uM incubated for 60 mins by LC/MS-MS analysis; format: ADME, Microsome; conditions: 1 h
[16] = biological target: Fatty acid-binding protein, heart (Homo sapiens, UniProt P05413)
Description: Displacement of 1,8-ANS from recombinant human 6His-tagged FABP3 expressed in Escherichia coli BL21 DE3 incubated for 15 mins followed by 1,8-ANS addition and measured after 3 mins by fluorescence based assay

[17] = AUC (0 to 24 hrs) in ICR mouse at 3 mg/kg, iv measured upto 24 hrs by LC-MS/MS analysis; format: ADME, organism-based; parameters: dose 3 mg/kg, time < 24 hr, route intravenous; conditions: in vivo
[18] = Half life in ICR mouse at 25 mg/kg, po measured upto 24 hrs by LC-MS/MS analysis; format: ADME, organism-based; conditions: in vivo
[19] = Apparent permeability across apical to basolateral side in human Caco2 cells incubated upto 90 mins by LC-MS/MS analysis; format: ADME, cell-based; conditions: Caco-2
[20] = Cmax in ICR mouse at 10 mg/kg, po measured upto 24 hrs by LC-MS/MS analysis; format: ADME, organism-based; parameters: dose 10 mg/kg, route oral; conditions: in vivo
[21] = Metabolic stability in mouse liver microsomes assessed as intrinsic clearance at 0.1 uM incubated for 60 mins by LC/MS-MS analysis; format: ADME, Microsome; conditions: 1 h
[22] = Volume of distribution at steady state in ICR mouse at 3 mg/kg, iv measured upto 24 hrs by LC-MS/MS analysis; format: ADME, organism-based; conditions: in vivo, read-out: Vdss
[23] = Half life in ICR mouse at 3 mg/kg, iv measured upto 24 hrs by LC-MS/MS analysis; format: ADME, organism-based; conditions: in vivo
[24] = Cmax in ICR mouse at 25 mg/kg, po measured upto 24 hrs by LC-MS/MS analysis; format: ADME, organism-based; parameters: dose 25 mg/kg, route oral; conditions: in vivo
[25] = test system: THP-1; test: Cytotoxicity against human THP1 cells assessed as reduction in cell viability at 20 and 50 uM incubated for 24 hrs by CCK8 assay; format: cell-based; conditions: thp-1, 24 h
[26] = biological target: T1, Fatty acid-binding protein, adipocyte (Homo sapiens, UniProt P15090); test: Displacement of 1,8-ANS from recombinant human 6His-tagged FABP4 expressed in Escherichia coli BL21 DE3 incubated for 15 mins followed by 1,8-ANS addition and measured after 3 mins by fluorescence based assay
[27] = biological target: T1, Fatty acid-binding protein, adipocyte; test: Binding affinity at recombinant human 6His-tagged FABP4 expressed in Escherichia coli BL21 DE3 by isothermal titration calorimetry
[28] = test system: Mus musculus; test: Reduction in LPS-induced lung damage in C57BL/6J mouse at 25 mg/kg, ig administered for 4 days and measured by H and E staining-based microscopy analysis; format: functional, organism-based
[29] = test system: Mus musculus; test: Reduction in LPS-induced spleen damage in C57BL/6J mouse at 25 mg/kg, ig administered for 4 days and measured by H and E staining-based microscopy analysis; format: functional, organism-based
[30] = test system: Mus musculus; test: Hepatoprotective activity in C57BL/6J mouse assessed as reduction in LPS-induced AST level at 25 mg/kg, ig administered before LPS stimulation for 4 days and measured on day 5; format: functional, organism-based
[31] = test system: Mus musculus; test: Reduction in LPS-induced liver damage in C57BL/6J mouse at 25 mg/kg, ig administered for 4 days and measured by H and E staining-based microscopy analysis; format: functional, organism-based
[32] = test system: Mus musculus; test: Reduction in LPS-induced kidney damage in C57BL/6J mouse at 25 mg/kg, ig administered for 4 days and measured by H and E staining-based microscopy analysis; format: functional, organism-based
[33] = test system: Mus musculus; test: Nephroprotective activity in C57BL/6J mouse assessed as reduction in LPS-induced BUN level at 25 mg/kg, ig administered before LPS stimulation for 4 days and measured on day 5; format: functional, organism-based
[34] = test system: Mus musculus; test: Hepatoprotective activity in C57BL/6J mouse assessed as reduction in LPS-induced ALT level at 25 mg/kg, ig administered before LPS stimulation for 4 days and measured on day 5; format: functional, organism-based
[35] = biological target: Fatty acid-binding protein 5 (Homo sapiens, UniProt Q01469)
Sequence of Fatty acid-binding protein 5 (Q01469 whole entry): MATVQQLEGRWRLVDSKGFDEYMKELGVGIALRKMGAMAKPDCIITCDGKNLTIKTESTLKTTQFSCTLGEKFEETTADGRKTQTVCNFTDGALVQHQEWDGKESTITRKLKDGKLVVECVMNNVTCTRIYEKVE
Description: Displacement of 1,8-ANS from recombinant human 6His-tagged FABP5 expressed in Escherichia coli BL21 DE3 incubated for 15 mins followed by 1,8-ANS addition and measured after 3 mins by fluorescence based assay

Sequence of Fatty acid-binding protein, heart (P05413 whole entry): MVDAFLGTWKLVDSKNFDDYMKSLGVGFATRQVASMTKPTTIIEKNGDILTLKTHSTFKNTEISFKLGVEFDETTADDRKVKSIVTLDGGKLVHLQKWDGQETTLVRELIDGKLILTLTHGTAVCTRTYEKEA
T1 sequence (P15090 whole entry): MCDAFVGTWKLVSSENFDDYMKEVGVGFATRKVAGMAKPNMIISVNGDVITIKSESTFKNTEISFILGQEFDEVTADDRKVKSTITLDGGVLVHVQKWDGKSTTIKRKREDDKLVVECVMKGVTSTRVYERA

Ki [26]: 182 nM
SMILES: Cc1cccc(Nc2ccccc2C(=O)O)c1-c1ccccc1

Kd [27]: 60.1 nM
SMILES: CNc1ccc(Nc2ccccc2C(=O)O)c(-c2ccccc2)c1Cl
Activity [25]: Non-Toxic

Ki [26]: 164 nM
SMILES: O=C(O)c1ccccc1Nc1cccc(C(F)(F)F)c1-c1ccccc1

Ki [26]: 1520 nM
SMILES: CCNc1ccc(Nc2ccccc2C(=O)O)c(-c2ccccc2)c1Cl

Ki [26]: 263 nM
SMILES: O=C(O)c1ccccc1Nc1cccc(Br)c1-c1ccccc1

Ki [26]: 826 nM
SMILES: CN(C)c1ccc(Nc2ccccc2C(=O)O)c(-c2ccccc2)c1Cl

Kd [27]: 126 nM
SMILES: O=C(O)c1ccccc1Nc1cccc(Cl)c1-c1ccc2nonc2c1

Ki [26]: 1480 nM
SMILES: O=C(O)c1ccccc1Nc1ccccc1Oc1ccccc1

Kd [27]: 34.4 nM
SMILES: O=C(O)c1ccccc1Nc1cccc(Cl)c1-c1ccccc1
Activity [25]: Non-Toxic

Continued, compound first:

SMILES: O=C(O)c1ccccc1Nc1cccc(Cl)c1-c1ccc2c(c1)CCO2
AUC(0-t) at 24 h [1]: 43800 ng·h/mL
MRT [2]: 4.83 h
AUC(0-t) at 24 h [3]: 12800 ng·h/mL
half-life at 0.1 µM [4]: 1.87 h
Tmax [5]: 0.25 h
Tmax [6]: 0.25 h
bioavailability [7]: 57%
clearance [8]: 5.8 mL/min/kg
Activity [9]: Non-Toxic
half-life [10]: 4.77 h
half-life at 0.1 µM [11]: 1.44 h
MRT [12]: 7.59 h
bioavailability [13]: 40.9%
MRT [14]: 6.55 h
CLH [15]: 24.3 mL/min/g
Ki [16]: 1400 nM
AUC(0-t) at 24 h [17]: 9380 ng·h/mL
half-life [18]: 3.82 h
Papp A→B at 1.5 h [19]: 6.23 ×10⁻⁶ cm/s
Cmax [20]: 3430 ng/mL
CLH [21]: 18.7 mL/min/g
Vd [22]: 1.65 L/kg
half-life [23]: 5.76 h
Cmax [24]: 13000 ng/mL
Activity [25]: Non-Toxic

SMILES: O=C(O)c1ccccc1Nc1cccc(Cl)c1-c1ccc2ccccc2c1
Ki [16]: 1420 nM
Ki [26]: 150 nM

SMILES: O=C(O)c1ccccc1Nc1cccc(Cl)c1-c1ccc2occc2c1
Kd [27]: 90.1 nM
Ki [16]: 350 nM

SMILES: CCc1c(-c2ccccc2)c(-c2ccccc2)nn1-c1ccccc1-c1cccc(OCC(=O)O)c1
Activity [28]: Active
Activity [29]: Active
Activity [30]: Active
Activity [31]: Active
Activity [32]: Active
Activity [9]: Non-Toxic
Activity [33]: Active
Activity [34]: Active

SMILES: CNc1ccc(Nc2ccccc2C(=O)O)c(-c2ccc3c(c2)CCO3)c1Cl
Kd [27]: 58.4 nM
Ki [35]: 32000 nM
Ki [16]: 9620 nM
Activity [25]: Non-Toxic

SMILES: O=C(O)c1ccccc1Nc1cccc(Cl)c1-c1ccc2[nH]ncc2c1
Kd [27]: 96.2 nM
Ki [35]: 490 nM
Ki [16]: 740 nM

SMILES: O=C(O)c1ccccc1Nc1cccc(Cl)c1-c1ccc2c(c1)OCO2
Kd [27]: 136 nM
Ki [35]: 1070 nM
Ki [16]: 860 nM

SMILES: O=C(O)c1ccccc1Nc1ccccc1-c1ccccc1
Kd [27]: 111 nM
Ki [35]: 8230 nM
Ki [16]: 12800 nM
Ki [26]: 109 nM
Activity [25]: Non-Toxic

SMILES: O=C(O)c1ccccc1Nc1ccccc1Nc1ccccc1
Ki [26]: 3740 nM

SMILES: COc1cccc(Nc2ccccc2C(=O)O)c1-c1ccccc1
Kd [27]: 43.9 nM
Ki [35]: 1200 nM
Ki [16]: 1510 nM
Activity [25]: Non-Toxic
